The values that follow are results of earlier work, collected in US20110280855A1, “VITAMIN C COMPOSITIONS” (priority 2006, published 2011).

In series [1] the test system is murine neuroblastoma as well as melanoma cell lines. The conditions noted are these: in vitro; dependent on the source of tumor cells.
Series [2] relates to Normal lung tissue of mice. The following applies: normal lung tissue of mice upon treatment.

As for `O=C(O)CCCCC1CCSS1` (stereo not drawn) [alpha-lipoic acid], the “increase of GSH content compared to untreated controls” value in series [1] is 30-70%. For the same molecule, the increase in glutathione entry in series [2] is recorded as “about 50%”.
